Reference: patent publication US20120184504A1, “"The Use of a PAR-1 Antagonist in Combination with a P2Y12 ADP Receptor Antagonist for Inhibition of Thrombosis"” (priority 2009, published 2012)

Tests used:
[1] = tested on: platelet aggregation induced by thromboxane A2 mimetic U46619 (10 μM); assay: Ex vivo whole blood platelet aggregation induced by U46619; assay type: in vivo, cynomolgus monkeys
Method: (§1) Animals instrumented to produce CFRs were administered SCH 602539, cangrelor, or a combination of SCH 602539 and cangrelor. The dosing regimens of SCH 602539 were selected to provide a broad range of inhibition of platelet aggregation induced by 1 μM thrombin receptor agonist peptide (TRAP), whereas the doses of cangrelor were selected to achieve 50%-60% inhibition of platelet aggregation induced by 10 μM ADP (the degree of inhibition obtained with clopidogrel). Group 1 received drug vehicle only (20% hydroxypropyl betacyclodextran or saline, 2 mL i.v.). Group 2 received SCH 602539 dissolved in 20% hydroxypropyl betacyclodextran administered as sequential i.v. boluses of 0.1, 0.3, or 1 mg/kg, at 30-minute intervals. Group 3 received cangrelor dissolved in saline and administered as an intravenous infusion of 0.1, 0.2, or 0.3 μg/kg/min for 30 minutes each. Group 4 received a combination of SCH 602539 bolus plus cangrelor infusion (at respective doses of: 1) 0.05 mg/kg+0.05 μg/kg/min; 2) 0.1 mg/kg+0.1 μg/kg/min; and 3) 0.15 mg/kg+0.1 μg/kg/min. The three dose regimens within each group were administered sequentially over the consecutive 30-minute periods coinciding with the re-induction of endothelial injury. Study drug or vehicle was administered after stable CFRs were achieved, and upon the completion of a 30-minute baseline CFR collection period, drug(s) or vehicle were administered incrementally (every 30 minutes) either as a bolus (SCH 602539) or as an infusion (cangrelor), and their effects on CFRs were monitored in the next three 30-minute observation periods. Blood samples (3 mL) were collected from the femoral arterial catheter at the end of each 30-minute observation period for assessment of ex vivo platelet aggregation and coagulation parameters.
(§2) Platelet aggregation studies were performed ex viva on blood samples obtained from the monkeys subjected to the Folts model, using a ChronoLog whole blood aggregometer (Model 540VS, Havertown, Pa.). Briefly, 0.5 mL of blood was incubated with 0.5 mL of normal saline at 37° C. in a cuvette containing a stir bar for 2 minutes. Platelet agonists used in this study included TRAP (3 μM), ADP (10 μM), the thromboxane A2 mimetic U46619 (10 μM), and collagen (3 μg/mL). Platelet aggregation was monitored for 5 minutes following the addition of the agonist. The peak aggregation response was recorded in ohms. In addition, standard coagulation parameters, including prothrombin time (PT), activated partial thromboplastin time (APTT), and activated clotting time (ACT), were assessed.

[2] = Activated clotting time (ACT) in whole blood, Folts model animals; assay type: in vivo, cynomolgus monkeys; conditions: for ACT: i.v.; for effect on ACT: tested doses
Method: as §1, §2
PT and APTT assays were performed with plasma, while the ACT assay was performed with whole blood. Data are presented as mean±SEM (n=5-6/group).

SMILES | Aggregation, U46619 ([1]; SCH 602539 0.1 mg/kg, baseline 20 ± 5) [ohms] | effect on aggregation induced by 10 μM U46619 ([1]; SCH 602539 0.3 mg/kg and 1 mg/kg) | Aggregation, U46619 ([1]; SCH 602539 0.3 mg/kg, baseline 20 ± 5) [ohms] | Aggregation, U46619 ([1]; SCH 602539 1.0 mg/kg, baseline 20 ± 5) [ohms] | ACT ([2]; SCH 602539 0.1 mg/kg, bolus, whole blood, baseline 79 ± 5.9) [s] | ACT ([2]; SCH 602539 0.3 mg/kg, bolus, baseline 79 ± 5.9) [s] | ACT ([2]; SCH 602539 1.0 mg/kg, bolus, baseline 79 ± 5.9) [s] | effect on ACT [2] | Aggregation, U46619 ([1]; Cangrelor 0.1 μg/kg/min, baseline 15 ± 3) [ohms] | Aggregation, U46619 ([1]; Cangrelor 0.2 μg/kg/min, baseline 15 ± 3) [ohms] | Aggregation, U46619 ([1]; Cangrelor 0.3 μg/kg/min, baseline 15 ± 3) [ohms] | effect on aggregation stimulated by 10 μM U46619 ([1]; cangrelor 0.2 and 0.3 μg/kg/min) | ACT ([2]; Cangrelor 0.1 μg/kg/min × 30 min, whole blood, baseline 77 ± 3.7) [s] | ACT ([2]; Cangrelor 0.2 μg/kg/min × 30 min, baseline 77 ± 3.7) [s] | ACT ([2]; Cangrelor 0.3 μg/kg/min × 30 min, baseline 77 ± 3.7) [s]
CCOC(=O)N[C@@H]1CC[C@@H]2[C@@H](C1)C[C@H]1C(=O)O[C@H](C)[C@H]1[C@H]2/C=C/c1ccc(-c2ccccn2)cn1 [SCH 602539] | 17 ± 3 | did not affect | 19 ± 4 | 21 ± 5 | 73 ± 2.2 | 71 ± 4.4 | 67 ± 4.9 | no effect |  |  |  |  |  |  | 
CSCCNc1nc(SCCC(F)(F)F)nc2c1ncn2[C@@H]1O[C@H](COP(=O)(O)OP(=O)(O)C(Cl)(Cl)P(=O)(O)O)[C@@H](O)[C@H]1O [Cangrelor] |  |  |  |  |  |  |  | no effect | 12 ± 3 | 10 ± 4 | 10 ± 4 | did not interfere | 79 ± 2.3 | 76 ± 1.7 | 74 ± 3.5
